# US20200216439A1, “HETERO-1,5,6,7-TETRAHYDRO-4H-INDOL-4-ONES” (BAYER PHARMA AKTIENGESELLSCHAFT, priority 2015, published 2020)
# Molecular target: T1, catalytic domain of human Bub1 (amino acids 704-1085) (Homo sapiens, UniProt O43683)
# T1 construct: catalytic domain of human Bub1 (amino acids 704-1085); His6 (N); made in house; host or cells: Hi5 insect cells
# Experiment: Bub1 kinase assay (TR-FRET)
# Format: biochemical
# Details: TR-FRET; ATP 10 μM, peptide substrate 1 μM; 60 min at 22° C.; average or median if tested more than once; read-out: Inhibition of Bub1 kinase IC50
# Outline: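 Eleven concentrations (0.1 nM–20 μM, duplicate) fitted by 4-parameter logistic for IC50. Read-out: EDTA-stopped TR-FRET (665/620 nm) detecting anti-phosphoserine binding to biotin-peptide (1 μM). Reaction used 10 μM ATP, 60 min at 22 °C, after 15 min compound preincubation with His-tagged human Bub1 704-1085.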
# T1 sequence (O43683 704-1085): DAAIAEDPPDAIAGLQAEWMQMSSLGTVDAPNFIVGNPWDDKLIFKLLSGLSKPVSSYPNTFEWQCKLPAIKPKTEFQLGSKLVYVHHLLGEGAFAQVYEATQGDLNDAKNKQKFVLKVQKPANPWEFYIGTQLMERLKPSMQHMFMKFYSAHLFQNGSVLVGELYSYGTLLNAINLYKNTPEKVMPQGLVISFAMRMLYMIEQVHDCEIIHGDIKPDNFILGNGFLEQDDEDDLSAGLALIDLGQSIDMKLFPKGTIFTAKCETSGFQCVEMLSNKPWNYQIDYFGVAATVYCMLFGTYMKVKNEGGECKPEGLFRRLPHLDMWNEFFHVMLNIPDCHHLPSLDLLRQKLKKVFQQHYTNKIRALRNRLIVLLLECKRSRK
row,IC50,Structure (SMILES)
1,5 nM,CC(=O)Nc1cc(-c2[nH]c3c(c2Nc2ccccc2)C(=O)CN(S(=O)(=O)C2CC2)C3)ccn1 [Example 172]
2,6 nM,"CC(=O)Nc1cc(-c2[nH]c3c(c2Nc2ccccc2)C(=O)CN(S(=O)(=O)C2CCOCC2)C3)ccn1 [Example 173, N-{4-[3-Anilino-4-oxo-6-(tetrahydro-2H-pyran-4-ylsulfonyl)-4,5,6,7-tetrahydro-1H-pyrrolo[2,3-c]pyridin-2-yl]pyridin-2-yl}acetamide]"
3,8 nM,"CC(=O)Nc1cc(-c2[nH]c3c(c2Nc2ccccc2)C(=O)CN(C(=O)CC(C)(C)C)C3)ccn1 [Example 174, N-{4-[3-Anilino-6-(3,3-dimethylbutanoyl)-4-oxo-4,5,6,7-tetrahydro-1H-pyrrolo[2,3-c]pyridin-2-yl]pyridin-2-yl}acetamide]"
4,8 nM,"CC(=O)Nc1cc(-c2[nH]c3c(c2Nc2ccccc2)C(=O)CN(C(=O)c2cncs2)C3)ccn1 [Example 175, N-{4-[3-Anilino-4-oxo-6-(1,3-thiazol-5-ylcarbonyl)-4,5,6,7-tetrahydro-1H-pyrrolo[2,3-c]pyridin-2-yl]pyridin-2-yl}acetamide]"
5,16 nM,"CC(=O)Nc1cc(-c2[nH]c3c(c2Nc2ccccc2)C(=O)CN(C(=O)c2cnco2)C3)ccn1 [Example 176, N-{4-[3-Anilino-6-(1,3-oxazol-5-ylcarbonyl)-4-oxo-4,5,6,7-tetrahydro-1H-pyrrolo[2,3-c]pyridin-2-yl]pyridin-2-yl}acetamide]"
6,23 nM,"CC(=O)Nc1cc(-c2[nH]c3c(c2Nc2ccccc2)C(=O)CN(C(=O)CC(C)(C)O)C3)ccn1 [Example 177, N-{4-[3-Anilino-6-(3-hydroxy-3-methylbutanoyl)-4-oxo-4,5,6,7-tetrahydro-1H-pyrrolo[2,3-c]pyridin-2-yl]pyridin-2-yl}acetamide]"
7,63 nM,"CC(=O)Nc1cc(-c2[nH]c3c(c2Nc2ccccc2)C(=O)CN(C(=O)CCC(C)(C)C)C3)ccn1 [Example 179, N-{4-[3-Anilino-6-(4,4-dimethylpentanoyl)-4-oxo-4,5,6,7-tetrahydro-1H-pyrrolo[2,3-c]pyridin-2-yl]pyridin-2-yl}acetamide]"
8,5 nM,"CCC(=O)N1CC(=O)c2c([nH]c(-c3ccnc(NC(C)=O)c3)c2Nc2ccccc2)C1 [Example 180, N-[4-(3-Anilino-4-oxo-6-propionyl-4,5,6,7-tetrahydro-1H-pyrrolo[2,3-c]pyridin-2-yl)pyridin-2-yl]acetamide]"
9,5 nM,"CC(=O)Nc1cc(-c2[nH]c3c(c2Nc2ccccc2)C(=O)CN(C(=O)C(C)(C)C)C3)ccn1 [Example 181, N-{4-[3-Anilino-6-(2,2-dimethylpropanoyl)-4-oxo-4,5,6,7-tetrahydro-1H-pyrrolo[2,3-c]pyridin-2-yl]pyridin-2-yl}acetamide]"
10,4 nM,"CC(=O)Nc1cc(-c2[nH]c3c(c2Nc2ccccc2)C(=O)CN(S(=O)(=O)CCC(F)(F)F)C3)ccn1 [Example 182, N-(4-{3-Anilino-4-oxo-6-[(3,3,3-trifluoropropyl)sulfonyl]-4,5,6,7-tetrahydro-1H-pyrrolo[2,3-c]pyridin-2-yl}pyridin-2-yl)acetamide]"
11,9 nM,"CCOC(=O)N1CC(=O)c2c([nH]c(-c3ccnc(NC(C)=O)c3)c2Nc2ccccc2)C1 [Example 183, Ethyl 2-(2-acetamidopyridin-4-yl)-3-anilino-4-oxo-1,4,5,7-tetrahydro-6H-pyrrolo[2,3-c]pyridine-6-carboxylate]"
12,8 nM,"CC(=O)Nc1cc(-c2[nH]c3c(c2Nc2ccccc2)C(=O)CN(C(=O)OCCF)C3)ccn1 [Example 184, 2-Fluoroethyl 2-(2-acetamidopyridin-4-yl)-3-anilino-4-oxo-1,4,5,7-tetrahydro-6H-pyrrolo[2,3-c]pyridine-6-carboxylate]"
13,14 nM,"CC(=O)Nc1cc(-c2[nH]c3c(c2Nc2ccccc2)C(=O)CN(C(=O)OC(C)C)C3)ccn1 [Example 185, Isopropyl 2-(2-acetamidopyridin-4-yl)-3-anilino-4-oxo-1,4,5,7-tetrahydro-6H-pyrrolo[2,3-c]pyridine-6-carboxylate]"
14,3 nM,"CC(=O)Nc1cc(-c2[nH]c3c(c2Nc2ccccc2)C(=O)CN(C(=O)N(C)C(C)C)C3)ccn1 [Example 186, 2-(2-Acetamidopyridin-4-yl)-3-anilino-N-isopropyl-N-methyl-4-oxo-1,4,5,7-tetrahydro-6H-pyrrolo[2,3-c]pyridine-6-carboxamide]"
15,3 nM,"CCCN(C)C(=O)N1CC(=O)c2c([nH]c(-c3ccnc(NC(C)=O)c3)c2Nc2ccccc2)C1 [Example 187, 2-(2-Acetamidopyridin-4-yl)-3-anilino-N-methyl-4-oxo-N-propyl-1,4,5,7-tetrahydro-6H-pyrrolo[2,3-c]pyridine-6-carboxamide]"
16,4 nM,"CC(=O)Nc1cc(-c2[nH]c3c(c2Nc2ccccc2)C(=O)CN(S(=O)(=O)CCO)C3)ccn1 [Example 188, N-(4-{3-Anilino-6-[(2-hydroxyethyl)sulfonyl]-4-oxo-4,5,6,7-tetrahydro-1H-pyrrolo[2,3-c]pyridin-2-yl}pyridin-2-yl)acetamide]"

row,IC50,Structure (SMILES)
1,16 nM,CC(=O)Nc1cc(-c2[nH]c3c(c2Nc2ccccc2)C(=O)CN(C(=O)CCO)C3)ccn1 [Example 189]
2,135 nM,"CC(=O)Nc1cc(-c2[nH]c3c(c2Nc2ccccc2)C(=O)CN(C(=O)CCC(F)(F)F)C3)ccn1 [Example 190, N-{4-[3-Anilino-4-oxo-6-(4,4,4-trifluorobutanoyl)-4,5,6,7-tetrahydro-1H-pyrrolo[2,3-c]pyridin-2-yl]pyridin-2-yl}acetamide]"
3,143 nM,"CC(=O)Nc1cc(-c2[nH]c3c(c2Nc2ccccc2)C(=O)CN(C(=O)C2CCN(C)CC2)C3)ccn1 [Example 191, N-(4-{3-Anilino-6-[(1-methylpiperidin-4-yl)carbonyl]-4-oxo-4,5,6,7-tetrahydro-1H-pyrrolo[2,3-c]pyridin-2-yl}pyridin-2-yl)acetamide]"
4,30 nM,CSCCC(=O)N1CC(=O)c2c([nH]c(-c3ccnc(NC(C)=O)c3)c2Nc2ccccc2)C1 [Example 192]
5,19 nM,"CC(=O)Nc1cc(-c2[nH]c3c(c2Nc2ccccc2)C(=O)CN(C(=O)c2cnsc2)C3)ccn1 [Example 193, N-{4-[3-Anilino-4-oxo-6-(1,2-thiazol-4-ylcarbonyl)-4,5,6,7-tetrahydro-1H-pyrrolo[2,3-c]pyridin-2-yl]pyridin-2-yl}acetamide]"
6,46 nM,"CC(=O)Nc1cc(-c2[nH]c3c(c2Nc2ccccc2)C(=O)CN(C(=O)c2cscn2)C3)ccn1 [Example 194, N-{4-[3-Anilino-4-oxo-6-(1,3-thiazol-4-ylcarbonyl)-4,5,6,7-tetrahydro-1H-pyrrolo[2,3-c]pyridin-2-yl]pyridin-2-yl}acetamide]"
7,24 nM,"CC(=O)Nc1cc(-c2[nH]c3c(c2Nc2ccccc2)C(=O)CN(C(=O)c2cocn2)C3)ccn1 [Example 195, N-{4-[3-Anilino-6(1,3-oxazol-4-ylcarbonyl)-4-oxo-4,5,6,7-tetrahydro-1H-pyrrolo[2,3-c]pyridin-2-yl]pyridin-2-yl}acetamide]"
8,7 nM,"CC(C)(C)OC(=O)N1CC(=O)c2c([nH]c(-c3ccnc(NC(=O)[C@@H]4C[C@@H]4F)c3)c2Nc2ccccc2)C1 [Example 196, tert-Butyl 3-anilino-2-[2-({[(1S,2S)-2-fluorocyclopropyl]carbonyl}amino)pyridin-4-yl]-4-oxo-1,4,5,7-tetrahydro-6H-pyrrolo[2,3-c]pyridine-6-carboxylate]"
9,40 nM,"O=C1CNCc2[nH]c(-c3ccnc(NC(=O)[C@@H]4C[C@@H]4F)c3)c(Nc3ccccc3)c21 [Example 197, (1S,2S)—N-[4-(3-anilino-4-oxo-4,5,6,7-tetrahydro-1H-pyrrolo[2,3-c]pyridin-2-yl)pyridin-2-yl]-2-fluorocyclopropanecarboxamide]"
10,3 nM,"CCC(=O)N1CC(=O)c2c([nH]c(-c3ccnc(NC(=O)[C@@H]4C[C@@H]4F)c3)c2Nc2ccccc2)C1 [Example 198, (1S,2S)-2-Fluoro-N-4-[4-oxo-3-(phenylamino)-6-propanoyl-4,5,6,7-tetrahydro-1H-pyrrolo[2,3-c]pyridin-2-yl]pyridin-2-ylcyclopropanecarboxamide]"
11,20 nM,"CC(=O)Nc1cc(-c2[nH]c3c(c2Nc2ccccc2)C(=O)CN(C(=O)c2ncco2)C3)ccn1 [Example 199, N-4-[6-(1,3-Oxazol-2-ylcarbonyl)-4-oxo-3-(phenylamino)-4,5,6,7-tetrahydro-1H-pyrrolo[2,3-c]pyridin-2-yl]pyridin-2-ylacetamide]"
12,7 nM,"O=C1CN(C(=O)c2ccncc2)Cc2[nH]c(-c3ccnc(NC(=O)[C@@H]4C[C@@H]4F)c3)c(Nc3ccccc3)c21 [Example 200, (1S,2S)-2-Fluoro-N-4-[4-oxo-3-(phenylamino)-6-(pyridin-4-ylcarbonyl)-4,5,6,7-tetrahydro-1H-pyrrolo[2,3-c]pyridin-2-yl]pyridin-2-ylcyclopropanecarboxamide]"
13,6 nM,CC(C)(O)CC(=O)N1CC(=O)c2c([nH]c(-c3ccnc(NC(=O)[C@@H]4C[C@@H]4F)c3)c2Nc2ccccc2)C1 [Example 201]
14,8 nM,"O=C1CN(C(=O)CCO)Cc2[nH]c(-c3ccnc(NC(=O)[C@@H]4C[C@@H]4F)c3)c(Nc3ccccc3)c21 [Example 202, (1S,2S)-2-Fluoro-N-4-[6-(3-hydroxypropanoyl)-4-oxo-3-(phenylamino)-4,5,6,7-tetrahydro-1H-pyrrolo[2,3-c]pyridin-2-yl]pyridin-2-ylcyclopropanecarboxamide]"
15,2 nM,CS(=O)(=O)N1CC(=O)c2c([nH]c(-c3ccnc(NC(=O)[C@@H]4C[C@@H]4F)c3)c2Nc2ccccc2)C1 [Example 203]
